Entries after “also recorded” stand apart in the source; their conditions may differ. Like-named read-outs stand apart in the source and are kept apart here.
How the values were obtained:
myeloma cell line U266 [1] = assay: Cell viability by flow cytometry (7AAD labeling), U266; format: cell-based; details: U266, 7AAD flow cytometry, 48 h
Procedure: These same assays were repeated incubating the myeloma cell line U266 for a period of 48 hours with increasing concentrations of WIN 55,212-2 between 0.5 and 50 uM.
(§1) For the viability analysis by means of flow cytometry, the cells were treated with suitably labeled monoclonal antibodies for the identification of each of the cell types used. Once labeled; the cells were exposed for 15 min to 7AAD ([…]) to evaluate cell viability; the reading was performed in the cytometer and analyzed with the computer program adapted for the cytometer. At least 100,000 events were acquired, and the mean fluorescence intensity was obtained.
These same assays were repeated, incubating myeloma cell line U266 for a period of 48 hours with increasing concentrations of WIN 55,212-2 between 0.5 and 50 uM. Nevertheless, cell viability was determined by means of flow cytometry instead of by means of MTT metabolization.

[2] = system: multiple myeloma cell line MM1.S; assay: MTT cell viability, multiple myeloma cell line MM1.S; format: cell-based
Procedure: In this sense, in order to carry out these assays the authors incubated the myeloma cell line MM1.S at different concentrations with the cannabinoid agent WIN 55-212,2 for 48 and 96 hours, and cell viability was determined by means of MTT metabolization. Mean proliferation values of untreated control cell cultures were taken as 100%. The data corresponds to the means+/−the standard deviation of the triplicates of each of the 4 assays performed. […] Cell viability also drops after 96 hours of exposure to the drug at the same concentrations.
(§2) The method for the determination of cell viability by means of the MTT assay is based on the capacity that viable cells have of metabolizing 3-(4,5-dimethylthiazol-2-yl)-2,5-diphenyltetrazol (MTT) bromide. The metabolic reduction of MTT due to the action of the mitochondrial enzyme, succinate dehydrogenase, gives rise to the insoluble and colored form called formazan, which can be quantified by means of spectrocolorimetry. The amount of living cells is proportional to the optical density resulting.
(§3) After incubation with cannabinoids, 10 microliters of MTT were added to each well and were incubated 2-4 hours in the same conditions. The reaction is subsequently stopped, the crystallized formazan is solubilized and optical density was determined at 450 nm in a plate spectrophotometer. All the assays were performed in triplicate.
In this sense, in order to carry out these assays the authors incubated myeloma cell line MM1.S at different concentrations with the cannabinoid agent WIN 55-212,2 for 48 and 96 hours, and cell viability was determined by means of MTT metabolization. Mean proliferation values of untreated control cell cultures were taken as 100%. The data corresponds to the means +/− the standard deviation of the triplicates of each of the 4 assays performed. […] Cell viability also drops after 96 hours of exposure to the drug ay the same concentrations.

CD45+ lymphocytes = assay: 7AAD viability of lymphocytes in primary bone marrow culture of myeloma patients; format: cell-based, human
Procedure: (§4) Finally, the authors of the present invention evaluated the toxicity of cannabinoid agent WIN 55,212-2, which was determined in terms of cell viability by means of two types of assays, one based on the drop in 3(4,5dimethyl-2-thiazoyl)-2,5-diphenyltetrazolic bromide (MTT), and another one based on the interaction of 7AAD. Primary cultures of mononuclear cells obtained from peripheral blood from healthy donors (CD34+ hematopoietic progenitors) and from bone marrow of patients suffering multiple myeloma (CD64+, granulocytes (B), CD45+, lymphocytes (C) and CD38+, plasma cells (D)) were used. […]
as §1
(§5) The authors of the present invention evaluated the toxicity of cannabinoid agent WIN 55,212-2, which was determined in terms of cell viability by means of two types of assays, one based on the drop in 3(4,5dimethyl-2-thiazoyl)-2,5-diphenyltetrazolic (MTT) bromide, and another one based on the interaction of the 7AAD. […]

CD38+ plasma cells = assay: 7AAD viability of plasma cells in primary bone marrow culture of myeloma patients; format: cell-based, human
Procedure: Finally, the authors of the present invention evaluated the toxicity of cannabinoid agent WIN 55,212-2, which was determined in terms of cell viability by means of two types of assays, one based on the drop in 3(4,5dimethyl-2-thiazoyl)-2,5-diphenyltetrazolic bromide (MTT), and another one based on the interaction of 7AAD. Primary cultures of mononuclear cells obtained from peripheral blood from healthy donors (CD34+ hematopoietic progenitors) and from bone marrow of patients suffering multiple myeloma (CD64+, granulocytes (B), CD45+, lymphocytes (C) and CD38+, plasma cells (D)) were used.
The plasma cells, granulocytes and lymphocytes were obtained from bone marrow samples from patients with multiple myeloma after hypotonic lysis with ammonium chloride (0.16 M in 0.17 M Tris, pH 7.6) for 10 min at room temperature, for the purpose of removing the erythrocyte cell population. The cell suspension resulting from lysis, which only contains mononuclear cells, was seeded in multiwell plates at the same cell density as the progenitor cells using supplemented RPMI medium plus 20% fetal bovine serum.
The primary cultures were incubated in the presence and absence of the cannabinoid agent WIN 55,212-2 at different concentrations. […]
as §1, §5

[3] = system: CD64+ granulocytes (polymorphonuclear cells); assay: 7AAD viability of granulocytes in primary bone marrow culture of myeloma patients; format: cell-based, human; details: 0.5-50 micromol, 18 h
Procedure: as §4, §1, §5

myeloma cell line U266 [4] = assay: MTT cell viability, myeloma cell line U266; format: cell-based; details: for cytotoxicity at 50 µM: Homo sapiens
Procedure: In order to determine the effect of the cannabinoid compound WIN 55,212-2, myeloma cell line U266 was incubated for a period of 48 and 96 hours with increasing concentrations of WIN 55,212-2 between 0.5 and 50 uM; cell viability was determined by means of the MTT metabolization. The MTT assay is based on the capacity of the mitochondrial enzyme, succinate dehydrogenase, of viable cells for transforming the tetrazolium salt MTT into a blue-colored product, MTT formazan, which is proportional to the number of living cells present. The mean proliferation values of the untreated control cell cultures were taken as 100%.
as §2, §3
To determine the effect of cannabinoid compound WIN 55,212-2, myeloma cell line U266 was incubated for a period of 48 and 96 hours with increasing concentrations of WIN 55,212-2 between 0.5 and 50 uM; cell viability was determined by means of MTT metabolization. The MTT assay is based on the capacity of the mitochondrial enzyme, succinate dehydrogenase, of viable cells to transform tetrazolium salt MTT into a blue-colored product, formazan MTT, which is proportional to the number of living cells present. Mean proliferation values of untreated control cell cultures were taken as 100%.

[5] = system: CD34+ hematopoietic progenitors; assay: MTT cytotoxicity on CD34+ hematopoietic progenitors from healthy donors; format: cell-based, human; details: CD34+ hematopoietic progenitors of healthy donors, 0.5-50 micromol, 12 or 18 h
Procedure: as §4
The method for the determination of cell viability by means of the MTT assay is based on the capacity that viable cells have of metabolizing 3-(4,5-dimethylthiazol-2-yl)-2,5-diphenyltetrazol (MTT) bromide. The metabolic reduction of MTT due to the action of the mitochondrial enzyme, succinate dehydrogenase, gives rise to the insoluble and colored form called formazan, which can be quantified by means of spectrocolorimetry. […]
After incubation with cannabinoids, 10 microliters of MTT were added to each well and were incubated 2-4 hours in the same conditions. The reaction is subsequently stopped, the crystallized formazan is solubilized and optical density was determined at 450 nm in a plate spectrophotometer. […]

For `Cc1c(C(=O)c2cccc3ccccc23)c2cccc3c2n1[C@H](CN1CCOCC1)CO3` [WIN 55,212-2, (R)-(+)-[2,3-Dihydro-5-methyl-3-(4-morpholinylmethyl)pyrrolo[1,2,3-de]-1,4 benzoxazin-6-yl]-1-naphtalenylmethanone], the “concentration from which a cytotoxic effect (significant drop in cell viability, p<0.05) is seen” value (myeloma cell line U266 [1]) was at least 10 µM, the “sensitivity of cell line MM1.S compared with cell line U266” value ([2]; 48 and 96 h) was “more sensitive” and the “concentration after which cell viability noticeably dropped” value ([2]; MM1.S, 48 h) was “greater than 1 uM”. The cytotoxicity ([2]; MM1.S, 48 h, 10 uM, 20 uM and 50 uM) was “greater than 50%”, the “cell viability after longer incubation” value ([2]; MM1.S, 96 h, same concentrations as at 48 h) was “also drops; also recorded: also affected” and the “drop in cell viability at 96 h compared with 48 h” value ([2]; MM1.S, 96 h vs 48 h) was “lower than at short incubation times”. For the same compound, the loss of viability (CD45+ lymphocytes; 0.5-50 micromol, 12 or 18 h) was “only detected at the highest dose”, the “drop in cell viability” value (CD45+ lymphocytes; 7AAD, 18 h, 50 uM) was 40% and the cytotoxicity at 50 µM (CD38+ plasma cells; Homo sapiens, 18 h, read-out: reduction of cell viability) was over 80%. For the same compound, the “doses producing a drastic drop in cell viability” value (CD38+ plasma cells; plasma cells, bone marrow primary culture, 12 or 18 h) was “greater than 10 uM”, the “population of plasma cells after incubation” value (CD38+ plasma cells; plasma cells, bone marrow primary culture, 18 h, 20 uM and 50 uM) was “drastically reduced” and the cell viability [3] was “not affected”. For the same compound, the cytotoxicity at 50 µM (myeloma cell line U266 [4]; U-266, 48 h, read-out: inhibition of cell viability, U266, MTT, 48 h, 50 uM) was about 60%, the cytotoxicity at 50 µM (myeloma cell line U266 [4]; U-266, 96 h, read-out: inhibition (drop) of cell viability, U266, MTT, 96 h, 50 uM) was about 80% and the “cell viability drops to” value (myeloma cell line U266 [4]; U266, MTT, 48 h, 10 uM and 20 uM, untreated control = 100%) was 40%. The “inhibition of cell viability” value (myeloma cell line U266 [4]; U266, MTT, 48 h, between 10 uM and 20 uM) was “about 40%” and the cell viability [5] was “not affected”.
